Results reported in ChEMBL document CHEMBL1201862, “PubChem BioAssay data set” (2004).
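Assay format: 96-well plates, 48-hour exposure. GI50 = concentration required for 50% inhibition of growth.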 Calls of active or inactive are those of the source. Cut-off read from the data, not from the text of the source: active = GI50 up to about 1.1 µM and inactive = higher.

Columns and labels:
Experiment in all cases: NCI-60 cell line screen, 48 h
A549 = system: A549
OVCAR-4 = system: OVCAR-4
786-0 = system: 786-0
U-251 = system: U-251
UO-31 = system: UO-31
IGROV-1 = system: IGROV-1
DU-145 = system: DU-145
SR = system: SR
KM12 = system: KM12
SK-MEL-28 = system: SK-MEL-28
COLO 205 = system: COLO 205
MDA-N = system: MDA-N
TK-10 = system: TK-10
EKVX = system: EKVX
MOLT-4 = system: MOLT-4
RXF 393 = system: RXF 393
NCI-H522 = system: NCI-H522
CCRF-CEM = system: CCRF-CEM
OVCAR-3 = system: OVCAR-3
HCC 2998 = system: HCC 2998

Measured: GI50

Cn1c(=O)n2c(=O)n(C)c(=O)n2c1=O
inactive: A549 > 100 µM | OVCAR-4 > 100 µM | 786-0 > 100 µM | U-251 > 100 µM | UO-31 > 100 µM | IGROV-1 > 100 µM | DU-145 > 100 µM | SR > 100 µM | KM12 > 100 µM | SK-MEL-28 > 100 µM | COLO 205 > 100 µM | MDA-N > 100 µM | TK-10 > 100 µM | EKVX > 100 µM | MOLT-4 > 100 µM | RXF 393 > 100 µM | NCI-H522 > 100 µM | CCRF-CEM > 100 µM | OVCAR-3 > 100 µM | HCC 2998 > 100 µM

Clc1ccc(-c2nn3c(CCCCCCCCc4nnc5sc(-c6ccc(Cl)cc6)nn45)nnc3s2)cc1
inactive: A549 13.2 µM | OVCAR-4 8.85 µM | 786-0 20.1 µM | U-251 15.9 µM | UO-31 12.6 µM | IGROV-1 22.8 µM | DU-145 11.7 µM | SR 17.1 µM | KM12 11.9 µM | SK-MEL-28 23.6 µM | COLO 205 26.6 µM | MDA-N 18.2 µM | TK-10 23.4 µM | EKVX 20 µM | MOLT-4 7.69 µM | RXF 393 14.9 µM | NCI-H522 7.91 µM | CCRF-CEM 11.8 µM | OVCAR-3 19.8 µM | HCC 2998 48.3 µM

O=C1SC(SCc2ccccc2)=NC12CC2c1ccccc1 (stereo not given)
inactive: A549 26.9 µM | OVCAR-4 16 µM | 786-0 19.4 µM | U-251 18.3 µM | UO-31 19.5 µM | IGROV-1 21.4 µM | DU-145 29 µM | SR 21.3 µM | KM12 17.7 µM | SK-MEL-28 19 µM | COLO 205 23.4 µM | MDA-N 20.9 µM | TK-10 25.6 µM | EKVX 20.2 µM | MOLT-4 1.34 µM | RXF 393 18.7 µM | NCI-H522 14.5 µM | CCRF-CEM 2.93 µM | OVCAR-3 27.7 µM | HCC 2998 7.62 µM

CSc1nc(SC)c2c(C)c(Br)[nH]c2n1
inactive: A549 > 100 µM | OVCAR-4 > 100 µM | 786-0 > 100 µM | U-251 > 100 µM | UO-31 > 100 µM | IGROV-1 > 100 µM | DU-145 > 100 µM | SR > 100 µM | KM12 > 100 µM | SK-MEL-28 > 100 µM | COLO 205 > 100 µM | MDA-N > 100 µM | TK-10 > 100 µM | EKVX 70.5 µM | MOLT-4 > 100 µM | RXF 393 > 100 µM | NCI-H522 > 100 µM | CCRF-CEM > 100 µM | OVCAR-3 > 100 µM | HCC 2998 > 100 µM

COc1cc(C2SCC(=O)N2c2ccc(Cl)c(Cl)c2)cc(OC)c1OC (stereo not given)
inactive: A549 > 78.7 µM | OVCAR-4 27.4 µM | 786-0 > 55.6 µM | U-251 47.3 µM | UO-31 18.9 µM | IGROV-1 > 82.6 µM | DU-145 > 38.5 µM | SR 9.75 µM | KM12 12.7 µM | SK-MEL-28 > 50.9 µM | COLO 205 34.3 µM | MDA-N 13 µM | TK-10 > 100 µM | EKVX 25.5 µM | MOLT-4 14.7 µM | RXF 393 18.5 µM | NCI-H522 22.1 µM | CCRF-CEM 14.8 µM | OVCAR-3 34.1 µM | HCC 2998 > 56.9 µM

NC(=O)SCC(=O)Nc1ccc2cccc3c2c1CC3
inactive: A549 > 100 µM | OVCAR-4 17.3 µM | 786-0 18.9 µM | U-251 5.33 µM | UO-31 41.2 µM | IGROV-1 > 100 µM | DU-145 > 100 µM | SR 8.71 µM | KM12 36.7 µM | SK-MEL-28 > 10 µM | COLO 205 > 100 µM | MDA-N 21.8 µM | TK-10 27.9 µM | EKVX > 100 µM | MOLT-4 19.8 µM | RXF 393 26 µM | NCI-H522 > 100 µM | CCRF-CEM 8.02 µM | OVCAR-3 31.6 µM | HCC 2998 62.1 µM

COc1ccc(-c2nc3ccc(C)cc3o2)c(OC)c1
inactive: A549 4.76 µM | OVCAR-4 26.9 µM | 786-0 21.4 µM | U-251 1.63 µM | UO-31 24 µM | IGROV-1 20.8 µM | DU-145 25.8 µM | SR 14.3 µM | KM12 19.2 µM | SK-MEL-28 55.7 µM | COLO 205 20.7 µM | MDA-N 23.9 µM | TK-10 27.4 µM | EKVX 19.6 µM | MOLT-4 11.3 µM | RXF 393 22.5 µM | NCI-H522 18.8 µM | CCRF-CEM 24.1 µM | OVCAR-3 15.7 µM | HCC 2998 14.9 µM
